Measurements reported in patent US7186725B2, “Anti-inflammatory compositions and methods” (Genzyme Corporation, priority 2003, dated 2007).
Where two headings read alike, the source gives them in different places.

Legend:
[1] = tested on: purified rat T cells; experiment: Concanavalin A activated T-cell proliferation assay ([3H] thymidine uptake); assay type: cell-based; conditions: 96 h, @ 1 mM
Procedure: Compounds of Formula I (above), based on an ethyl dimethylaminopropylurea (1) parent structure, have been discovered as active agents against a modified Concanavalin A activated T-cell proliferation assay using purified rat T-cells. These cells were incubated for 4 days and pulsed with [^3H] thymidine for the last 16 hrs of incubation. [^3H] Thymidine uptake was measured as the mean counts per minute (cpm) of duplicate experimental cultures. The compounds of the present invention were discovered by screening a compound library. (directed analogs of parent compound 1) using an assay designed to identify inhibitors of Concanavalin A stimulated T-cell proliferation. Normal dermal fibroblasts and kidney epithelial cell toxicity assays were run on active compounds to eliminate non-selective cytotoxic compounds.

[2] = tested on: IL-6; experiment: Cellular assay: Mediator Release, IL-6; assay type: cell-based; conditions: IL-6 release
[3] = tested on: IL-10; experiment: Cellular assay: Mediator Release, IL-10; assay type: cell-based; conditions: IL-10 release
[4] = tested on: Autoimmune Encephalomyelitis (EAE); experiment: Autoimmune Encephalomyelitis (EAE) model, PLP 139-151 immunized mice; assay type: in vivo, SJL/J mice
[5] = tested on: Septic Shock, Lipopolysaccharide; experiment: Septic Shock, Lipopolysaccharide plus galactosamine in mice; assay type: in vivo, C57/BL mice
Procedure: Groups of 4 or 6 C57/BL mice weighing 18–20g were used. […] The blank control group was only applied 10% cremophor/10% ethanol IP and without LPS challenge. Mortality is recorded every 12 hours after challenge over a 3-day period. Protection of mortality by 50 percent or more (≧50%) indicates significant activity.

[6] = tested on: NF-κB; experiment: Cellular assay: Transcription Response, NF-κB; assay type: cell-based
[7] = tested on: TNF-α; experiment: Cellular assay: Mediator Release, TNF-α; assay type: cell-based
[8] = tested on: Interferon-γ; experiment: Cellular assay: Mediator Release, Interferon-γ; assay type: cell-based
[9] = tested on: IL-5; experiment: Cellular assay: Mediator Release, IL-5; assay type: cell-based; conditions: IL-5 release
[10] = tested on: IL-1β; experiment: Cellular assay: Mediator Release, IL-1β; assay type: cell-based; conditions: IL-1β release
[11] = tested on: Distal colitis induced by DNBS; experiment: Inflammatory Bowel Disease: DNBS-induced distal colitis in rats; assay type: in vivo; conditions: rat
Procedure: CM Hogaboam et al., Eur. J. Pharmacol.; 309; 261 (1996) Groups of 3 derived-male, overnight-fasted rats weighing 150±10 g are used. Distal colitis is induced by intra-colonic instillation of 0.5 ml/rat of DNBS (2,4-dinitrobenzene sulfonic acid, 60 mg/ml in ethanol 30%) after which air (2 ml) is gently injected through the cannula to ensure that the solution remains in the colon. […] The animals are sacrificed 24 hours after the final dose of test compound administration and each colon is removed and weighed.

[12] = Table 1, read-out: Thymidine Uptake (% Reduction @ 1 mM)
[13] = Table 2, read-out: Thymidine Uptake (% Reduction @ 1 mM)
[14] = Table 3, read-out: Thymidine Uptake (% Reduction @ 1 mM)
[15] = 25 mg/kg daily day 1 to 16, FIG. 1

CCNC(=O)NCc1ccco1 [Compound 2] showed an inhibition at 1000 µM [1, 12] of 16%.

Work on CCNC(=O)NCC1CCCO1 (stereo not shown) [Compound 3] yielded an inhibition at 1000 µM [1, 12] of 26%.

CCNC(=O)NCC(c1ccccc1)c1ccccc1 [Compound 4] was tested, and the inhibition at 1000 µM [1, 12] was 26%.

CCNC(=O)NCCc1cccc(Cl)c1 [Compound 5] showed an inhibition at 1000 µM [1, 12] of 24%.

CCNC(=O)NCCN1CCCCC1 [Compound 6] gave an inhibition at 1000 µM [1, 12] of 33%.

With CCNC(=O)Nc1cccc2nsnc12 [Compound 7] the inhibition at 1000 µM [1, 12] was 25%.

CCNC(=O)Nc1nc2ccccc2s1 [Compound 8] gave an inhibition at 1000 µM [1, 12] of 22%.

Molecule CCNC(=O)NN1CCCC1 [Compound 9] has an inhibition at 1000 µM [1, 12] of 16%.

Molecule CCNC(=O)Nc1cccc(OC(F)(F)F)c1 [Compound 10] has an inhibition at 1000 µM [1, 12] of 30%.

CCNC(=O)Nc1cc[nH]n1 [Compound 11] gave an inhibition at 1000 µM [1, 12] of 35%.

Molecule CCNC(=O)NC(C)(C)CC(C)=O [Compound 12] has an inhibition at 1000 µM [1, 12] of 35%.

With CCNC(=O)NC1CCN(C(=O)OCC)CC1 [Compound 13] the inhibition at 1000 µM [1, 12] was 35%.

CCNC(=O)Nc1cccc(S(N)(=O)=O)c1 [Compound 14] gave an inhibition at 1000 µM [1, 12] of 18%.

Molecule CCNC(=O)Nc1c(F)c(F)c(C#N)c(F)c1F [Compound 15] has an inhibition at 1000 µM [1, 12] of 26%.

With CCNC(=O)Nc1ccc(C(N)=O)cc1 [Compound 16] the inhibition at 1000 µM [1, 12] was 27%.

CCCNCCCNC(=O)NCC [Compound 17] was tested, and the inhibition at 1000 µM [1, 12] was 25%.

CCNC(=O)NOC(C)(C)C [Compound 18] was tested, and the inhibition at 1000 µM [1, 12] was 25%.

Work on CCNC(=O)Nc1nc2cc(C)c(C)cc2[nH]1 [Compound 19, 1-(5,6-dimethyl-1H-benzoimidazol-2-yl)-3-ethyl urea] yielded an inhibition at 1000 µM [1, 12] of 77%.

In the case of CCNC(=O)Nc1cnccn1 [Compound 20], the inhibition at 1000 µM [1, 12] is reported as 55%.

CCNC(=O)Nc1ncnc2[nH]ncc12 [Compound 21] showed an inhibition at 1000 µM [1, 12] of 95%.

Molecule CCNC(=O)Nn1cnnc1 [Compound 22] has an inhibition at 1000 µM [1, 12] of 19%.

In the case of CCNC(=O)NC(C(=O)OCC)C(=O)OCC [Compound 23], the inhibition at 1000 µM [1, 12] is reported as 12%.

Molecule C=CCNC(=O)NCC [Compound 24] has an inhibition at 1000 µM [1, 12] of 18%.

Work on CCNC(=O)NCC(C)(C)C [Compound 25] yielded an inhibition at 1000 µM [1, 12] of 60%.

CCNC(=O)NCCCN1CCSCC1 [Compound 26] was tested, and the inhibition at 1000 µM [1, 13] was 16%.

Work on CCNC(=O)NCCCN1CC(C)OC(C)C1 (stereo not shown) [Compound 28] yielded an inhibition at 1000 µM [1, 13] of 13%.

CCCN(CCCNC(=O)NCC)CC1CC1 [Compound 29] showed an inhibition at 1000 µM [1, 13] of 23%.

Molecule CCNC(=O)NCCCN(CCO)Cc1ccccc1 [Compound 30] has an inhibition at 1000 µM [1, 13] of 12%.

CCNC(=O)NCCCN1CCN(c2cccc(C)c2C)CC1 [Compound 31, 1-{3′-[4-(2,3-xylyl)-piperazin-1-yl]-propyl}-3-ethyl urea] was tested, and the inhibition at 1000 µM [1, 13] was 21%.

Work on CCNC(=O)NCCCN1CCN(c2ncc(C(F)(F)F)cc2Cl)CC1 [Compound 32] yielded an inhibition at 1000 µM [1, 13] of 27%.

With CCNC(=O)NCCCN1CCC(Cc2ccccc2)CC1 [Compound 33] the inhibition at 1000 µM [1, 13] was 17%.

With CCNC(=O)NCCCN1CCc2ccccc2C1Cc1ccccc1 (stereo not shown) [Compound 34] the inhibition at 1000 µM [1, 13] was 12%.

For CCNC(=O)NCCCN1CCC(C(=O)c2ccc(Cl)cc2)CC1 [Compound 35], the inhibition at 1000 µM [1, 13] was 55%.

CCNC(=O)NCCCN1CCN(c2cc(Cl)ccc2C)CC1 [Compound 36] was tested, and the inhibition at 1000 µM [1, 13] was 18%.

Molecule CCNC(=O)NCCCN1CCN(C/C=C\c2ccccc2)CC1 [Compound 37] has an inhibition at 1000 µM [1, 13] of 23%.

For CCNC(=O)NCCCN1CCN(c2ccccc2)C(C)C1 (stereo not shown) [Compound 38], the inhibition at 1000 µM [1, 13] was 13%.

In the case of CCNC(=O)NCCCN1CCN(c2cc(C)ccc2C)CC1 [Compound 39], the inhibition at 1000 µM [1, 13] is reported as 23%.

With CN(C)CCCNC(=O)NCC12CCC3CC(CC1C3)C2 (stereo not shown) [Compound 40] the inhibition at 1000 µM [1, 14] was 20%.

In the case of CN(C)CCCNC(=O)NCCCCO [Compound 41], the inhibition at 1000 µM [1, 14] is reported as 12%.

COc1ccccc1CNC(=O)NCCCN(C)C [Compound 43] gave an inhibition at 1000 µM [1, 14] of 24%.

For CN(C)CCCNC(=O)NCCC(c1ccccc1)c1ccccc1 [Compound 44], the inhibition at 1000 µM [1, 14] was 21%.

In the case of CN(C)CCCNC(=O)NC1Cc2ccccc2C1 [Compound 45], the inhibition at 1000 µM [1, 14] is reported as 20%.

CN(C)CCCNC(=O)NCc1ccccc1Cl [Compound 46] gave an inhibition at 1000 µM [1, 14] of 21%.

For COc1ccc(CNC(=O)NCCCN(C)C)c(OC)c1 [Compound 47], the inhibition at 1000 µM [1, 14] was 20%.

Molecule CN(C)CCCNC(=O)NCCc1cccc(Cl)c1 [Compound 48] has an inhibition at 1000 µM [1, 14] of 26%.

CN(C)CCCNC(=O)Nc1nccc2ccccc12 [Compound 49] was tested, and the inhibition at 1000 µM [1, 14] was 36%.

For CN(C)CCCNC(=O)Nc1ncc([N+](=O)[O-])s1 [Compound 50], the inhibition at 1000 µM [1, 14] was 22%.

Work on CN(C)CCCNC(=O)Nc1ncnc2[nH]ncc12 [Compound 51] yielded an inhibition at 1000 µM [1, 14] of 86%.

Molecule CN(C)CCCNC(=O)Nc1nnn[nH]1 [Compound 52] has an inhibition at 1000 µM [1, 14] of 14%.

Work on COCCCNC(=O)NCCCN(C)C [Compound 53] yielded an inhibition at 1000 µM [1, 14] of 26%.

For CN(C)CCCNC(=O)NCc1csc2ccccc12 [Compound 54], the inhibition at 1000 µM [1, 14] was 16%.

CN(C)CCCNC(=O)NCCc1cccs1 [Compound 55] gave an inhibition at 1000 µM [1, 14] of 17%.

Molecule CCNC(=O)Nc1nc2cc(C)c(C)cc2[nH]1 [Compound 56, 1-(5,6-dimethyl-1H-benzoimidazol-2-yl)-3-ethyl urea] has an inhibition at 10000 µM ([2]; Conc. 10 mM) of 82%, an IC50 [2] of 3.89 µM and an inhibition at 10000 µM ([3]; Conc. 10 mM) of 63%. For the same molecule, the IC50 [3] was 5.74 µM, the “effect on disease onset (ADSS)” value ([4]; 24 mg/kg daily day 1 to 16, FIG. 2) was “significant effect” and the “Inhibition (protection of mortality)” value ([5]; IP 5 mg/kg) was 17%. For the same molecule, the “Total Deaths” value ([5]; IP 5 mg/kg, N 6, 3-day period) was 5, the “Inhibition (protection of mortality)” value ([5]; IP 25 mg/kg) was 50% and the “response in septic shock model at the highest dose” value ([5]; IP 25 mg/kg) was “statistically significant response”. For the same molecule, the “Total Deaths” value ([5]; IP 25 mg/kg, N 6, 3-day period) was 3, the “activity in septic shock model” value ([5]; IP 25 and 5 mg/kg) was “dose responsive activity” and the IC50 [6] was 9.65 µM. For the same molecule, the inhibition at 10000 µM ([6]; Conc. 10 mM) was 52%, the IC50 [7] was 1.94 µM and the inhibition at 10000 µM ([7]; Conc. 10 mM) was 89%. The IC50 [8] was 6.49 µM, the inhibition at 10000 µM ([8]; Conc. 10 mM) was 57% and the inhibition at 10000 µM ([9]; Conc. 10 mM) was 54%. For the same molecule, the IC50 [9] was 9.28 µM, the inhibition at 10000 µM ([10]; Conc. 10 mM) was 91% and the IC50 [10] was 2.06 µM. For the same molecule, the “Ave. (colon to 100 g body weight ratio)” value ([11]; PO 5 mg/kg × 7) was 0.678, the “Inhibition (of net increase of colon to 100 g body weight ratio, relative to vehicle with DNBS)” value ([11]; PO 5 mg/kg × 7) was 12% and the “Net Inc. (net increase of colon to 100 g body weight ratio)” value ([11]; PO 5 mg/kg × 7) was 0.381. For the same molecule, the “response in IBD model at the highest dose” value ([11]; PO 25 mg/kg) was “statistically significant response”, the “Ave. (colon to 100 g body weight ratio)” value ([11]; PO 25 mg/kg × 7) was 0.585 and the “Inhibition (of net increase of colon to 100 g body weight ratio, relative to vehicle with DNBS)” value ([11]; PO 25 mg/kg × 7) was 34%. For the same molecule, the “Net Inc. (net increase of colon to 100 g body weight ratio)” value ([11]; PO 25 mg/kg × 7) was 0.288 and the “activity in IBD model” value ([11]; PO 25 and 5 mg/kg) was “dose responsive activity”.

In the case of CCNC(=O)NCCCN1CCN(c2cccc(C)c2C)CC1 [Compound 57, 1-{3′-[4-(2,3-xylyl)-piperazin-1-yl]-propyl}-3-ethyl urea], the “effect on disease onset (ADSS)” value [4, 15] is reported as “had an effect on disease onset” and the “effect on maximum severity (ADSS)” value [4, 15] is reported as “not on maximum severity”.

For CC(=O)OCC(=O)[C@@]1(O)[C@H](C)C[C@H]2[C@@H]3CCC4=CC(=O)C=C[C@]4(C)[C@@]3(F)[C@@H](O)C[C@@]21C [Dexamethasone-21-acetate, reference compound], the “Inhibition (protection of mortality)” value ([5]; 1 mg/kg PO dose) was 100% and the “Total Deaths” value ([5]; 1 mg/kg PO dose, N 4, 3-day period) was 0.

With O=C(O)c1cc(/N=N/c2ccc(S(=O)(=O)Nc3ccccn3)cc2)ccc1O [Sulfasalazine, reference compound] the “Ave. (colon to 100 g body weight ratio)” value ([11]; PO 300 mg/kg × 7) was 0.551, the “Inhibition (of net increase of colon to 100 g body weight ratio, relative to vehicle with DNBS)” value ([11]; PO × 7) was 41% and the “Net Inc. (net increase of colon to 100 g body weight ratio)” value ([11]; PO × 7) was 0.254.
